Reference: US12691112B2, “FGFR tyrosine kinase inhibitors for the treatment of urothelial carcinoma” (Janssen Pharmaceutica NV, priority 2019, dated 2026)

System: subjects with metastatic or surgically unresectable urothelial cancer
[1] = all-causality, 6 mg continuous, n = 78

COc1cc(OC)cc(N(CCNC(C)C)c2ccc3ncc(-c4cnn(C)c4)nc3c2)c1 [erdafitinib, N-(3,5-dimethoxy-phenyl)-N′-(1-methylethyl)-N-[3-(1-methyl-1H-pyrazol-4-yl)quinoxalin-6-yl]ethane-1,2-diamine]
Treatment-related Paronychia, grade 3 (8 mg continuous, n = 99): 3 (3) no. (%)
Treatment-related Stomatitis, any grade (8 mg continuous, n = 99): 54 (55) no. (%)
Treatment-related Stomatitis, grade 1 (8 mg continuous, n = 99): 19 (19) no. (%)
Treatment-related Stomatitis, grade 2 (8 mg continuous, n = 99): 26 (26) no. (%)
Treatment-related Stomatitis, grade 3 (8 mg continuous, n = 99): 9 (9) no. (%)
Treatment-related Vision blurred, any grade (8 mg continuous, n = 99): 16 (16) no. (%)
Treatment-related Vision blurred, grade 1 (8 mg continuous, n = 99): 10 (10) no. (%)
Treatment-related Vision blurred, grade 2 (8 mg continuous, n = 99): 6 (6) no. (%)
Treatment-related Vision blurred, grade 3 (8 mg continuous, n = 99): 0 no. (%)
Treatment-related Weight decreased, any grade (8 mg continuous, n = 99): 10 (10) no. (%)
Treatment-related Weight decreased, grade 1 (8 mg continuous, n = 99): 5 (5) no. (%)
Treatment-related Weight decreased, grade 2 (8 mg continuous, n = 99): 5 (5) no. (%)
Treatment-related Weight decreased, grade 3 (8 mg continuous, n = 99): 0 no. (%)
some type of eye disorder, regardless of relation to treatment (8 mg per day continuous): 63%
treatment-related CSR grade ≥3 events (8 mg per day continuous): 3%
treatment-related central serous retinopathy (CSR) (8 mg per day continuous): 21%
treatment-related dry skin (8 mg per day continuous): 32%
treatment-related effects on the nails (8 mg per day continuous): 52%
treatment-related effects on the skin (8 mg per day continuous): 49%
treatment-related hand-foot syndrome (8 mg per day continuous): 22%
treatment-related hyperphosphatemia (8 mg per day continuous): 73%
treatment-related nail dystrophy (8 mg per day continuous): 16%
treatment-related onycholysis (8 mg per day continuous): 16%
patients with grade ≥3 treatment-emergent adverse events (8 mg per day continuous group uptitrated to 9 mg per day): 68%
grade 1 or 2 events among patients with eye disorders (8 mg per day continuous, patients with eye disorders (n=62)): 84%
Serious treatment-emergent: Dyspnea (10 mg intermittent, n = 33): 2 (6) no. (%)
Serious treatment-emergent: Eye disorders (10 mg intermittent, n = 33): 1 (3) no. (%)
Serious treatment-emergent: Gastrointestinal disorders (10 mg intermittent, n = 33): 2 (6) no. (%)
Serious treatment-emergent: Infections and infestations (10 mg intermittent, n = 33): 2 (6) no. (%)
Serious treatment-emergent: Metabolism and nutrition disorders (10 mg intermittent, n = 33): 1 (3) no. (%)
Serious treatment-emergent: Nervous system disorders (10 mg intermittent, n = 33): 0 no. (%)
Serious treatment-emergent: Renal and urinary disorders (10 mg intermittent, n = 33): 1 (3) no. (%)
Serious treatment-emergent: Respiratory, thoracic, mediastinal disorders (10 mg intermittent, n = 33): 4 (12) no. (%)
Serious treatment-emergent: Urinary tract infection (10 mg intermittent, n = 33): 0 no. (%)
Serious treatment-emergent: Urosepsis (10 mg intermittent, n = 33): 0 no. (%)
Total number of patients with serious treatment-emergent adverse events (10 mg intermittent, n = 33): 14 (42) no. (%)
Hyperphosphatemia reported (Regimen 3): 77%
hyperphosphatemia leading to dose reduction (Regimen 3): 9%
hyperphosphatemia managed by dose interruption (Regimen 3): 23%
patients discontinued due to treatment-emergent adverse events (Regimen 3): 13%
patients reporting treatment-emergent adverse events (Regimen 3): All patients
patients who required dose reduction (Regimen 3): 56%
patients with serious treatment-emergent adverse events (Regimen 3): 39%
stomatitis leading to dose reduction (Regimen 3): 16%
treatment-emergent adverse events grade 3 or 4 (Regimen 3): 67%
patients who required ≥1 dose reduction (Regimen 3, among 41 patients uptitrated to 9 mg per day): 59%
central serious retinopathy events resolved (all unresolved events grade 1 or 2): Seventy-six percent
Abdominal pain, any grade [1]: 14 no.
Abdominal pain, grade 1 [1]: 7 no.
Abdominal pain, grade 2 [1]: 5 no.
Abdominal pain, grade ≥ 3 [1]: 2 no.
Alanine aminotransferase increased, any grade [1]: 9 no.
Alanine aminotransferase increased, grade 1 [1]: 7 no.
Alanine aminotransferase increased, grade 2 [1]: 2 no.
Alanine aminotransferase increased, grade ≥ 3 [1]: 0 no.
Alopecia, any grade [1]: 10 no.
Alopecia, grade 1 [1]: 9 no.
Alopecia, grade 2 [1]: 1 no.
Alopecia, grade ≥ 3 [1]: 0 no.
Anemia, any grade [1]: 13 no.
Anemia, grade 1 [1]: 0 no.
Anemia, grade 2 [1]: 8 no.
Anemia, grade ≥ 3 [1]: 5 no.
Arthralgia, any grade [1]: 8 no.
Arthralgia, grade 1 [1]: 5 no.
Arthralgia, grade 2 [1]: 2 no.
Arthralgia, grade ≥ 3 [1]: 1 no.
Aspartate aminotransferase increased, any grade [1]: 9 no.
Aspartate aminotransferase increased, grade 1 [1]: 7 no.
Aspartate aminotransferase increased, grade 2 [1]: 2 no.
Aspartate aminotransferase increased, grade ≥ 3 [1]: 0 no.
Asthenia, any grade [1]: 18 no.
Asthenia, grade 1 [1]: 5 no.
Asthenia, grade 2 [1]: 4 no.
Asthenia, grade ≥ 3 [1]: 9 no.
Back pain, any grade [1]: 11 no.
Back pain, grade 1 [1]: 6 no.
Back pain, grade 2 [1]: 3 no.
Back pain, grade ≥ 3 [1]: 2 no.
Blood creatinine increased, any grade [1]: 6 no.
Blood creatinine increased, grade 1 [1]: 3 no.
Blood creatinine increased, grade 2 [1]: 3 no.
Blood creatinine increased, grade ≥ 3 [1]: 0 no.
Conjunctivitis, any grade [1]: 7 no.
Conjunctivitis, grade 1 [1]: 4 no.
Conjunctivitis, grade 2 [1]: 2 no.
